Test results from US20240140966A1, “AMORPHOUS AND CRYSTALLINE FORMS OF MCL-1 ANTAGONISTS” (AMGEN INC., priority 2022, published 2024).
Entries after “also recorded” stand apart in the source; their conditions may differ.

Assays:
[1] = Dog PK studies, amorphous versus crystalline suspension; assay type: in vivo; details: AMG 176 dosed as an amorphous suspension as compared to the crystalline suspension
Excerpt: AMG 176 Form 1 has acceptable pharmaceutical and physical properties, can be scaled to kilogram quantities, and can be compounded during drug product formulating as an in situ sodium salt to achieve desired drug concentrations to enable IV delivery. AMG 176 can also be converted to amorphous material to support oral dosing, if desired, depending on the dosing range. […] While improved exposures were observed by dosing the amorphous material, the exposures would likely plateau if gram level doses are need for oral delivery.

[2] = Solid state stability assessment under accelerated conditions; assay type: physicochemical; details: for XRPD after solid state physical stability assessment: 8 weeks under stress conditions; for chemical and physical stability after 8 weeks: 25° C./60% RH (open), 40° C. (closed), 60° C. (closed), 40° C./75% RH (open)
Procedure: Solid state stability assessment of AMG 176 Form 1 was conducted at 25° C./60% RH (open), 40° C. (closed), 60° C. (closed), and 40° C./75% RH (open) accelerated conditions to determine the chemical and physical stability of AMG 176.
Solid state stability assessment of AMG 176 amorphous material and Form 1 was conducted at 25° C./60% RH (open), 40° C. (closed), 60° C. (closed), and 40° C./75% RH (open) accelerated conditions to determine the chemical and physical stability of AMG 176.

Moisture sorption (DVS) = assay type: physicochemical; details: for hygroscopicity (in words): DVS up to 95% RH; for XRPD of the post-DVS material: after DVS cycle
Procedure: Moisture Sorption: Moisture sorption data was collected at 25° C. using a VTI vapor sorption analyzer. A sample size of approximately 4-10 mg was used in a standard platinum pan. Hygroscopicity was evaluated from 5 to 95% RH in increments of 5% RH. Data for adsorption and desorption cycles were collected. Equilibrium criteria were set at 0.001% weight change in 10 minute with a maximum equilibration time of 180 minutes.

[3] = DVS, 25° C., adsorption 5% to 95% RH

improvement of absorption [1] | XRPD after solid state physical stability assessment [2] | chemical and physical stability after 8 weeks [2] | water vapor uptake (weight gain) between 5% and 95% RH (Moisture sorption (DVS); [3]) | water vapor uptake (weight gain) between 5% and 95% RH (Moisture sorption (DVS); DVS, 25° C., adsorption 5% to 95% RH, listed as amorphous form of AMG 176) | weight gain at 95% RH (Moisture sorption (DVS); DVS, 95% relative humidity) | weight lost upon desorption (Moisture sorption (DVS); DVS, desorption cycle, likely loss of residual DCM and/or water) | XRPD of the post-DVS material (Moisture sorption (DVS)) | XRPD of the post-DVS material (Moisture sorption (DVS); listed as amorphous form of AMG 176) | XRPD after solid state physical stability assessment ([2]; listed as crystalline Form 1 of AMG 176) | water vapor uptake between 5% and 95% RH (Moisture sorption (DVS); [3]) | Structure (SMILES) | hygroscopicity (in words) (Moisture sorption (DVS))
10 × |  |  |  |  |  |  |  |  |  |  | CO[C@H]1/C=C/C[C@H](C)[C@@H](C)S(=O)(=O)NC(=O)c2ccc3c(c2)N(C[C@@H]2CC[C@H]21)C[C@@]1(CCCc2cc(Cl)ccc21)CO3 [AMG 176, (1S,3′R,6′R,7′S,8′E,11′S,12′R)-6-chloro-7′-methoxy-11′,12′-dimethyl-3,4-dihydro-2H,15′H-spiro[naphthalene-1,22′-[20]oxa[13]thia[1,14]diazatetracyclo[14.7.2.0^3,6.O^19,24]pentacosa[8,16,18,24]tetraen]-15′-one 13′,13′-dioxide] | 
 | Crystallization not observed | physically and chemically stable | 0.95 wt % | about 0.95 wt % | 0.95% | 1.59% | consistent with amorphous material | consistent with amorphous material |  |  | CO[C@H]1/C=C/C[C@H](C)[C@@H](C)S(=O)(=O)NC(=O)c2ccc3c(c2)N(C[C@@H]2CC[C@H]21)C[C@@]1(CCCc2cc(Cl)ccc21)CO3 [Amorphous AMG 176] | limited hygroscopicity
 |  | physically and chemically stable |  |  |  |  | no form change |  | Form conversion was not observed | 0.3% | CO[C@H]1/C=C/C[C@H](C)[C@@H](C)S(=O)(=O)NC(=O)c2ccc3c(c2)N(C[C@@H]2CC[C@H]21)C[C@@]1(CCCc2cc(Cl)ccc21)CO3 [AMG 176 Form 1] | low hygroscopicity; also recorded: non-hygroscopic
